This note sets out measurements from patent US11166942B2 (PRAXIS BIOTECH LLC, priority 2018, dated 2021).

One assay relates to ATF4. Briefly: ATF4 expression inhibition assay (ATF4 5'UTR luciferase reporter, Tg-stressed HEK293T cells). The assay is classed as cell-based, human. Conditions: for inhibition at 0.1 µM: read-out: % ATF4 inhibition at 100 nM; for IC50: read-out: ATF4 inhbition IC50; for inhibition at 1 µM: read-out: % ATF4 inhibition at 1 μM. As to the method: The ATF4 reporter was prepared by fusing the human full length 5′UTR of ATF4 (NCBI Accession No. BC022088.2) upstream of the firefly luciferase coding sequence lacking the initiator methionine. The fused sequence was cloned into pLenti-EF1a-C-Myc-DDK-IRES-Puro cloning vector (Origen #PS100085) using standard methods. Virus production was carried out by using Lenti-X™ Packaging Single Shots Protocol (Clonetech #631276). Viral particles were used to transduce HEK293T cells (ATCC #CRL-3216, ATCC Manassas, Va.), which were subsequently selected with puromycin to generate stable cell line. Cells were maintained at 37° C. and 5% CO2 in DMEM-F12 (Hyclone #SH30023.02) supplemented with 10% heat-inactivated fetal bovine serum (Gibco #16000-044), 2 mM L-glutamine (Gibco #25030-081), 100 U/ml penicillin, and 100 μg/ml streptomycin (Gibco #15140-122).
HEK293T cells carrying the ATF4 luciferase reporter were plated on 96-well plates (Nunc) at 10,000 cells per well. Cells were treated two days after seeding with 100 nM thapsigargin (Tg) (Sigma-Aldrich #T9033) in the presence of 100 nM or 1 μM. For the assessment of the half-maximal inhibitory concentration (IC50) for selected compounds, dose-response assays were performed. Compounds were serially diluted using DMSO ranging from 0.1 nM to 1 μM. Cells without treatment or cells treated with Tg alone were used as controls. Assay plates containing cells were incubated for 3 hours at 37° C.
Luciferase reactions were performed using Luciferase Assay System (Promega #E1501) as specified by the manufacturer. Luminescence was read with an integration time of 1 s and a gain of 110 using a Cytation-5 multi-mode microplate reader (BioTek). Relative luminescence units were normalized to Tg treatment (0% inhibition) and untreated cells (100% inhibition) and the percentage of ATF4 inhibition was calculated.
Percentages of ATF4 inhibition after induction with Tg in the presence of 100 nM or 1 μM of certain test compounds are shown in Table 2. Also shown in Table 2 is the calculated IC50 for certain test compounds. […] Accordingly, inhibition of ATF4 expression as a result of the test compound indicates suppression of the ISR pathway.
In general terms: Reporter assays use an easily measured gene product as a stand-in for the process of interest.

For assay [1], the system named is Chinese hamster ovary (CHO) cells. Briefly: Protein translation assay (puromycin labelling, CHO cells). The settings on record: Cricetulus griseus, CHO, media alone = 100%. In kind it is cell-based. As to the method: Chinese hamster ovary (CHO) cells were maintained at 37° C. and 5% CO2 in Dulbecco's Modified Eagle's Media (DMEM) supplemented with 10% fetal bovine serum, 2 mM L-glutamine, 100 U/ml penicillin, and 100 μg/ml streptomycin. After reaching 80% of confluence, cells were detached and seeded on 6 well plates in complete media, allowed to recover overnight and treated for 2 hours with 1 μM of the test compound (to assess protein synthesis levels in unstressed condition), or for 1 hour with 100 nM or 1 μM of the test compound and then co-treated with 300 nM Tg and 100 nM or 1 μM of the test compound (to assess the recovery of protein synthesis in a stressed condition). Cells treated with Tg alone were used as controls.
After the 2 hours treatments, media were replaced by adding 10 μg/ml puromycin (Sigma Aldrich #P8833) in complete media for 30 min. Media were removed and cells were lysed with SDS-PAGE lysis buffer. Lysates were transferred to 1.5 ml tubes and sonicated for 3 min and total protein amount were quantified using BCA Protein Assay Kit (Pierce). Equal amount of protein (30 μg) was loaded on SDS-PAGE gels. Proteins were transferred onto 0.2 μm PVDF membranes (BioRad) and probed with primary antibodies diluted in Tris-buffered saline supplemented with 0.1% Tween 20 (Merck #S6996184 505) and 3% bovine serum albumin (Rockland #BSA-50).
Puromycin (12D10) (Merck #MABE343) and β-actin (Sigma Aldrich #A5441) antibodies were used as primary antibody. A HRP-conjugated secondary antibody (Rockland) was employed to detect immune-reactive bands using enhanced chemiluminescence (ECL Western Blotting Substrate, Pierce). Quantification of protein bands was done by densitometry using ImageJ software.
Percent increase of protein synthesis in unstressed cells (without Tg treatment) in the presence of media alone or certain test compounds is shown in Table 3 The percentage levels were normalized to the media alone condition, which correspond to 100% protein synthesis.
Percent recovery of protein synthesis in stressed cells (with Tg treatment) due to the test compounds at 100 nM or 1 μM is also shown in Table 3. The levels were normalized to the media alone and to Tg alone conditions, which correspond to 100% and 0% respectively.

[2] abbreviates: Homo sapiens, HEK-293T, 3 h, 100 nM test compound, 100 nM thapsigargin, 3 hours, HEK293T ATF4 luciferase reporter.
Where [3] appears, read: Homo sapiens, HEK-293T, 3 h, 100 nM thapsigargin, 3 hours, HEK293T ATF4 luciferase reporter.
The mark [4] stands for this setting: Homo sapiens, HEK-293T, 3 h, 1 μM test compound, 100 nM thapsigargin, 3 hours, HEK293T ATF4 luciferase reporter.
Where [5] appears, read: 2 h, unstressed CHO cells, 1 μM, 2 hours, read-out: % Protein synthesis in unstressed cells (1 μM test compound).
Setting [6] is: CHO cells stressed with 300 nM Tg, 1 μM compound, Tg alone = 0%, read-out: % Recovery of protein expression (1 μM test compound).

Where two headings read alike, the source gives them in different places.

In the case of `O=C(COc1ccc(Cl)c(F)c1)NN1CCN(C[C@@H](O)COc2ccc(Cl)c(F)c2)CC1` (single isomer, unassigned) [Compound 50], in the assay on ATF4 (setting [2]), the inhibition at 0.1 µM is 97.2%. Besides, in the assay on ATF4 (setting [3]), the IC50 was 1.93 nM. Also, in the assay on ATF4 (setting [4]), the inhibition at 1 µM was determined as 100%. For the same compound, the activity at 1 µM in assay [1] (setting [5]) amounted to 96.8%; in assay [1] (setting [6]) it was 7.4%.
In the same order, the values of `O=C(COc1ccc(Cl)c(F)c1)NN1CCN(C[C@H](O)COc2ccc(Cl)c(F)c2)CC1` (single isomer, unassigned) [Compound 51] are 79.3%, 19.8 nM, 100%, 110% and 22.1%.
In the same order, the values of `O=C(COc1ccc(Cl)c(F)c1)NN1CCC(NC[C@@H](O)COc2ccc(Cl)c(F)c2)CC1` (single isomer, unassigned) [Compound 52] are 75.3%, 26.9 nM, 81.2%, 113% and 75.8%.
For the compound `O=C(COc1ccc(Cl)c(F)c1)NC1CCN(NCC(O)COc2ccc(Cl)c(F)c2)CC1` (centres unmarked) [Compound 7, 2-(4-chloro-3-fluorophenoxy)-N-(1-((3-(4-chloro-3-fluorophenoxy)-2-hydroxypropyl)amino)piperidin-4-yl)acetamide], in the assay with ATF4 (setting [2]), the inhibition at 0.1 µM stood at 16.1%. The IC50 in the assay with ATF4 (setting [3]) is greater than 1000 nM. Further, the inhibition at 1 µM in the assay with ATF4 (setting [4]) was 13.9%.
On the same counts, the results for `O=C(COc1ccc(Cl)c(F)c1)NC1CCN(NC(=O)c2nc3cc(Cl)ccc3s2)CC1` [Compound 9, 5-chloro-N-(4-(2-(4-chloro-3-fluorophenoxy)acetamido)piperidin-1-yl)benzo[d]thiazole-2-carboxamide] are 77.1%, less than 100 nM and 86.8%.
Regarding `O=C(COc1ccc(Cl)c(F)c1)NN1CCC(NC(=O)c2nc3cc(Cl)ccc3s2)CC1` [Compound 10, 5-chloro-N-(1-(2-(4-chloro-3-fluorophenoxy)acetamido)piperidin-4-yl)benzo[d]thiazole-2-carboxamide], in the assay on ATF4 (setting [2]), the inhibition at 0.1 µM is 68.2%. The IC50 in the assay with ATF4 (setting [3]) is less than 100 nM. In the assay on ATF4 (setting [4]), the inhibition at 1 µM came out at 87.2%.
In the same order, the values of `O=C(COc1ccc(Cl)c(F)c1)NC1CCN(NC(=O)C2Cc3cc(Cl)ccc3O2)CC1` (centres unmarked) [Compound 11, 5-chloro-N-(4-(2-(4-chloro-3-fluorophenoxy)acetamido)piperidin-1-yl)-2,3-dihydrobenzofuran-2-carboxamide] are 67.8%, less than 100 nM and 90.5%.
In the same order, the values of `O=C(COc1ccc(Cl)c(F)c1)NN1CCC(NC(=O)C2Cc3cc(Cl)ccc3O2)CC1` (centres unmarked) [Compound 12, 5-chloro-N-(1-(2-(4-chloro-3-fluorophenoxy)acetamido)piperidin-4-yl)-2,3-dihydrobenzofuran-2-carboxamide] are 69.4%, less than 100 nM and 88.5%.
As to `O=C(NN1CCN(CC(O)COc2ccc(Cl)c(F)c2)CC1)C1Cc2cc(Cl)ccc2O1` (centres unmarked) [Compound 13, 5-chloro-N-(4-(3-(4-chloro-3-fluorophenoxy)-2-hydroxypropyl)piperazin-1-yl)-2,3-dihydrobenzofuran-2-carboxamide], in the assay with ATF4 (100 nM test compound, 100 nM thapsigargin, 3 hours, HEK293T ATF4 luciferase reporter), the “% ATF4 inhibition at 100 nM” value turned out to be 60.7%. Also, the half-inhibitory concentration (IC50) with ATF4 (100 nM thapsigargin, 3 hours, HEK293T ATF4 luciferase reporter) is less than 100 nM. For the same compound, in the assay with ATF4 (1 μM test compound, 100 nM thapsigargin, 3 hours, HEK293T ATF4 luciferase reporter), the “% ATF4 inhibition at 1 μM” value was found to be 86.7%.
As for `O=C(NC1CCN(NCC(O)COc2ccc(Cl)c(F)c2)CC1)c1ccc2cc(Cl)ccc2n1` (centres unmarked) [Compound 25, 6-chloro-N-(1-((3-(4-chloro-3-fluorophenoxy)-2-hydroxypropyl)amino)piperidin-4-yl)quinoline-2-carboxamide], the inhibition at 0.1 µM in the assay on ATF4 (setting [2]) stood at 8.1%. Further, the IC50 with ATF4 (setting [3]) is greater than 1000 nM. For the same compound, the inhibition at 1 µM in the assay with ATF4 (setting [4]) is 8.5%.
For the compound `O=C(NC1CCN(NCC(O)COc2ccc(Cl)c(F)c2)CC1)c1cc2cc(Cl)ccc2o1` (centres unmarked) [Compound 26, 5-chloro-N-(1-((3-(4-chloro-3-fluorophenoxy)-2-hydroxypropyl)amino)piperidin-4-yl)benzofuran-2-carboxamide], in the assay on ATF4 (setting [2]), the inhibition at 0.1 µM came out at 37.5%. For the same compound, the inhibition at 1 µM in the assay on ATF4 (setting [4]) is 49.4%.
Consider `O=C(COc1ccc(C(F)(F)F)cc1)NC1CCN(NC(=O)COc2ccc(C(F)(F)F)cc2)CC1` [Compound 35, N,N′-(piperidine-1,4-diyl)bis(2-(4-(trifluoromethyl)phenoxy)acetamide)], for which the inhibition at 0.1 µM in the assay with ATF4 (setting [2]) stood at 92.1%. Besides, the IC50 in the assay on ATF4 (setting [3]) is less than 100 nM. Further, in the assay on ATF4 (setting [4]), the inhibition at 1 µM was found to be 91.6%.
For the compound `O=C(COc1ccc(Cl)c([N+](=O)[O-])c1)NC1CCN(NC(=O)COc2ccc(Cl)c(F)c2)CC1` [Compound 39, 2-(4-chloro-3-fluorophenoxy)-N-(4-(2-(4-chloro-3-nitrophenoxy)acetamido)piperidin-1-yl)acetamide], in the assay on ATF4 (Homo sapiens, HEK-293T, 3 h), the inhibition at 0.1 µM came to 91%, the inhibition at 1 µM is 91.5% and the concentration for half-maximal inhibition (IC50) was less than 100 nM.
As to `O=C(NC1CCN(NCC(O)COc2ccc(Cl)c(F)c2)CC1)C1Cc2cc(Cl)ccc2O1` (centres unmarked) [Compound 70, 5-chloro-N-(1-((3-(4-chloro-3-fluorophenoxy)-2-hydroxypropyl)amino)piperidin-4-yl)-2,3-dihydrobenzofuran-2-carboxamide], in the assay with ATF4 (setting [2]), the inhibition at 0.1 µM was found to be 0.4%. For the same compound, the IC50 in the assay on ATF4 (setting [3]) is greater than 1000 nM. The inhibition at 1 µM with ATF4 (setting [4]) was 21.4%.
For the compound `O=C(NN1CCN(CC(O)COc2ccc(C(F)(F)F)cc2)CC1)c1ccc2cc(Cl)ccc2n1` (centres unmarked) [Compound 71, 6-chloro-N-(4-(2-hydroxy-3-(4-(trifluoromethyl)phenoxy)propyl)piperazin-1-yl)quinoline-2-carboxamide], in the assay with ATF4 (Homo sapiens, HEK-293T, 3 h), the inhibition at 0.1 µM was 83.4%, the inhibition at 1 µM is 89.9% and the IC50 was less than 100 nM.

As a reminder, the inhibition is the percentage by which the read-out fell short of the control. The IC50 is the point on the concentration scale where inhibition reaches its midpoint.
